Patent publication US5216005A, “Immunosuppressive analogues and derivatives of succinylacetone” (priority 1990, dated 1993)

Key:
[1] = tested on: IL-2 (human lymphoid cells); assay: IL-2 production in primary mixed lymphocyte reaction (HT-2 cell assay); format: cell-based; parameters: IL-2: unit not given here; details: for IL-2: 1° MLR
Description: Derivatives of succinylacetone were tested for immunosuppressive activity in several different types of assay systems. The first consisted of measuring the amounts of interleukin-2 (IL-2), and interferon-γ (IFN-γ) produced by human lymphoid cells in a mixed lymphocyte reaction. Low levels of these molecules in the reaction mixture indicate that the immune system is being suppressed by the subject succinylacetone derivatives. IL-2 was measured by enumerating the number of viable HT-2 cells found after an 18-24 hours period. HT-2 cells are a mouse IL-2 dependent cell line which die in the absence of IL-2. The assay is described by Gillis et al., J. of Immunol. […] The mixed lymphocyte reaction assay can be carried out by techniques well known to those skilled in the art. L. Hudson and F. C. Huy, Practical Immunology, p. […] Briefly this consists of isolating lymphocytes from human peripheral blood by standard density gradient centrifugation techniques from two separate individuals. Approximately 2×10^5 lymphocytes of each individual are combined to yield a total of 4×10^5 lymphocytes per culture. All procedures are carried out under sterile conditions, and the lymphocytes are isolated and kept in physiologically compatible solutions. To the mixture of lymphocytes is added a desired amount of an appropriate succinylacetone derivative, and after different times an aliquot of the mixture is removed and assayed for IL-2 or IFN-γ, or ^[…] is measured.

[2] = tested on: adjuvant induced arthritis; assay: adjuvant induced arthritis in rats, overall arthritis score; intraarticular right paw, per kg: succinylacetone 325 μg, methyl ester 150 μg, 4-acetyl-5-oxohexanoate 560 μg; format: in vivo, rat
[3] = tested on: peripheral blood lymphocytes; assay: viability of peripheral blood lymphocytes with or without PHA, trypan blue exclusion; format: cell-based, human
Description: Viability was determined using the trypan blue exclusion method well known in the art. […] The assays were conducted in duplicate wherein peripheral blood lymphocytes were isolated from two separate individuals, and then treated with or without phytohemagglutinin in the presence of various concentrations of the appropriate succinylacetone derivative.

[4] = tested on: IFN-γ (human lymphoid cells); assay: IFN-γ production in primary mixed lymphocyte reaction (WISH cells/EMC virus assay); format: cell-based; parameters: IFN-γ: unit not given here; details: for IFN-γ: 1° MLR
Description: Derivatives of succinylacetone were tested for immunosuppressive activity in several different types of assay systems. The first consisted of measuring the amounts of interleukin-2 (IL-2), and interferon-γ (IFN-γ) produced by human lymphoid cells in a mixed lymphocyte reaction. Low levels of these molecules in the reaction mixture indicate that the immune system is being suppressed by the subject succinylacetone derivatives.
IFN-γ was determined by measuring the amount of protection conveyed on human WISH cells against the cytopathic effects of encephalomyocarditis virus (EMC). This assay is described by I. A. Braude, J. of Immunol. Methods 63:237 (1983). Both publications are hereby incorporated by reference.
The mixed lymphocyte reaction assay can be carried out by techniques well known to those skilled in the art. L. Hudson and F. C. Huy, Practical Immunology, p. 260, Blackwell Scientific Publications (1976). Briefly this consists of isolating lymphocytes from human peripheral blood by standard density gradient centrifugation techniques from two separate individuals. Approximately 2×10^5 lymphocytes of each individual are combined to yield a total of 4×10^5 lymphocytes per culture. All procedures are carried out under sterile conditions, and the lymphocytes are isolated and kept in physiologically compatible solutions. To the mixture of lymphocytes is added a desired amount of an appropriate succinylacetone derivative, and after different times an aliquot of the mixture is removed and assayed for IL-2 or IFN-γ, or ^3 H-T is measured.

COC(=O)CCC(=O)CC(C)=O [Succinylacetone Methyl Ester, methyl 4-6-dioxoheptanoate]
IL-2 ([1]; Exp I, 3 μM): 41 | IL-2 ([1]; Exp I, 9 μM): 28 | IL-2 ([1]; Exp I, 27 μM): 25 | IL-2 ([1]; Exp I, 81 μM): 24 | IL-2 ([1]; Exp I, 244 μM): 19 | IL-2 ([1]; Exp I, 733 μM): 14 | IL-2 ([1]; Exp I, 2.2 mM): < 6 | IL-2 ([1]; Exp I, 6.7 mM): < 6 | IL-2 ([1]; Exp I, 20 mM): < 6 | IL-2 ([1]; Exp II, 3 μM): 34 | IL-2 ([1]; Exp II, 9 μM): 38 | IL-2 ([1]; Exp II, 27 μM): 34 | IL-2 ([1]; Exp II, 81 μM): 28 | IL-2 ([1]; Exp II, 244 μM): 28 | IL-2 ([1]; Exp II, 733 μM): 23 | IL-2 ([1]; Exp II, 2.2 mM): < 8 | IL-2 ([1]; Exp II, 6.7 mM): < 8 | IL-2 ([1]; Exp II, 20 mM): < 8 | IC50 ([1]; Homo sapiens, HT2, read-out: concentration that inhibits IL-2 production by about 50%): ~733 µM | overall arthritis score ([2]; Exp. I (treated from same day), day 14): 2.4 ± 2.5 | overall arthritis score ([2]; Exp. I (treated from same day), day 16): 2.8 ± 2.4 | overall arthritis score ([2]; Exp. I (treated from same day), day 18): 3.4 ± 1.9 | overall arthritis score ([2]; Exp. I (treated from same day), day 20): 6.4 ± 3.6 | overall arthritis score ([2]; Exp. I (treated from same day), day 22): 6.8 ± 4.0 | overall arthritis score ([2]; Exp. I (treated from same day), day 24): 7.2 ± 4.1 | overall arthritis score ([2]; Exp. I (treated from same day), day 26): 6.2 ± 3.7 | overall arthritis score ([2]; Exp. II (treated from day 4), day 14): 1.6 ± 2.6 | overall arthritis score ([2]; Exp. II (treated from day 4), day 16): 2 ± 2.8 | overall arthritis score ([2]; Exp. II (treated from day 4), day 18): 3.2 ± 4.0 | overall arthritis score ([2]; Exp. II (treated from day 4), day 20): 4.0 ± 4.6 | overall arthritis score ([2]; Exp. II (treated from day 4), day 22): 4.8 ± 4.1 | overall arthritis score ([2]; Exp. II (treated from day 4), day 24): 4.8 ± 4.1 | overall arthritis score ([2]; Exp. II (treated from day 4), day 26): 5.6 ± 4.7 | overall arthritis score ([2]; Exp. III (treated from day 14), day 14): 1.2 ± 1.8 | overall arthritis score ([2]; Exp. III (treated from day 14), day 16): 1.4 ± 1.3 | overall arthritis score ([2]; Exp. III (treated from day 14), day 18): 1.4 ± 2.2 | overall arthritis score ([2]; Exp. III (treated from day 14), day 20): 4.8 ± 3.8 | overall arthritis score ([2]; Exp. III (treated from day 14), day 22): 4.4 ± 3.6 | overall arthritis score ([2]; Exp. III (treated from day 14), day 24): 4.4 ± 3.6 | overall arthritis score ([2]; Exp. III (treated from day 14), day 26): 3.0 ± 3.3 | effect on arthritis ([2]; comparison of treatment schedules, in words): most effective when it is administered 14 days after induction of the disease | viability ([3]; about 6.7 mM): little viability | Cells/ml ([3]; first individual, (+) PHA, 3 μM): 0.48 X 10^6 Cells/ml | Cells/ml ([3]; first individual, (+) PHA, 9 μM): 0.32 X 10^6 Cells/ml | Cells/ml ([3]; first individual, (+) PHA, 27 μM): 0.37 X 10^6 Cells/ml | Cells/ml ([3]; first individual, (+) PHA, 81 μM): 0.4 X 10^6 Cells/ml | Cells/ml ([3]; first individual, (+) PHA, 244 μM): 0.38 X 10^6 Cells/ml | Cells/ml ([3]; first individual, (+) PHA, 733 μM): 0.4 X 10^6 Cells/ml | Cells/ml ([3]; first individual, (+) PHA, 2.2 mM): 0.3 X 10^6 Cells/ml | Cells/ml ([3]; first individual, (+) PHA, 6.7 mM): 0.13 X 10^6 Cells/ml | Cells/ml ([3]; first individual, (-) PHA, 3 μM): 0.60 X 10^6 Cells/ml | Cells/ml ([3]; first individual, (-) PHA, 9 μM): 0.36 X 10^6 Cells/ml | Cells/ml ([3]; first individual, (-) PHA, 27 μM): 0.60 X 10^6 Cells/ml | Cells/ml ([3]; first individual, (-) PHA, 81 μM): 0.37 X 10^6 Cells/ml | Cells/ml ([3]; first individual, (-) PHA, 244 μM): 0.35 X 10^6 Cells/ml | Cells/ml ([3]; first individual, (-) PHA, 733 μM): 0.34 X 10^6 Cells/ml | Cells/ml ([3]; first individual, (-) PHA, 2.2 mM): 0.36 X 10^6 Cells/ml | Cells/ml ([3]; first individual, (-) PHA, 6.7 mM): 0.15 X 10^6 Cells/ml | Cells/ml ([3]; second individual, (+) PHA, 3 μM): 0.50 X 10^6 Cells/ml | Cells/ml ([3]; second individual, (+) PHA, 9 μM): 0.50 X 10^6 Cells/ml | Cells/ml ([3]; second individual, (+) PHA, 27 μM): 0.40 X 10^6 Cells/ml | Cells/ml ([3]; second individual, (+) PHA, 81 μM): 0.55 X 10^6 Cells/ml | Cells/ml ([3]; second individual, (+) PHA, 244 μM): 0.52 X 10^6 Cells/ml | Cells/ml ([3]; second individual, (+) PHA, 733 μM): 0.39 X 10^6 Cells/ml | Cells/ml ([3]; second individual, (+) PHA, 2.2 mM): 0.42 X 10^6 Cells/ml | Cells/ml ([3]; second individual, (+) PHA, 6.7 mM): 0.24 X 10^6 Cells/ml | Cells/ml ([3]; second individual, (-) PHA, 3 μM): 0.5 X 10^6 Cells/ml | Cells/ml ([3]; second individual, (-) PHA, 9 μM): 0.51 X 10^6 Cells/ml | Cells/ml ([3]; second individual, (-) PHA, 27 μM): 0.43 X 10^6 Cells/ml | Cells/ml ([3]; second individual, (-) PHA, 81 μM): 0.53 X 10^6 Cells/ml | Cells/ml ([3]; second individual, (-) PHA, 244 μM): 0.46 X 10^6 Cells/ml | Cells/ml ([3]; second individual, (-) PHA, 733 μM): 0.48 X 10^6 Cells/ml | Cells/ml ([3]; second individual, (-) PHA, 2.2 mM): 0.42 X 10^6 Cells/ml | Cells/ml ([3]; second individual, (-) PHA, 6.7 mM): 0.23 X 10^6 Cells/ml | IFN-γ ([4]; Exp I, 3 μM): 2558 | IFN-γ ([4]; Exp I, 9 μM): 1860 | IFN-γ ([4]; Exp I, 27 μM): 2713 | IFN-γ ([4]; Exp I, 81 μM): 1628 | IFN-γ ([4]; Exp I, 244 μM): 1575 | IFN-γ ([4]; Exp I, 733 μM): 1890 | IFN-γ ([4]; Exp I, 2.2 mM): 788 | IFN-γ ([4]; Exp I, 6.7 mM): < 630 | IFN-γ ([4]; Exp I, 20 mM): < 630 | IFN-γ ([4]; Exp II, 3 μM): 1313 | IFN-γ ([4]; Exp II, 9 μM): 1000 | IFN-γ ([4]; Exp II, 27 μM): 1032 | IFN-γ ([4]; Exp II, 81 μM): 1094 | IFN-γ ([4]; Exp II, 244 μM): 938 | IFN-γ ([4]; Exp II, 733 μM): 688 | IFN-γ ([4]; Exp II, 2.2 mM): < 375 | IFN-γ ([4]; Exp II, 6.7 mM): < 375 | IFN-γ ([4]; Exp II, 20 mM): < 375 | IC50 ([4]; Homo sapiens, Lymphocyte, primary MLR, read-out: concentration that inhibits IFN-γ production by about 50%): ~733 µM
